The values that follow come from patent US6235736A, “3-anilino-2-cycloalkenone derivatives” (Nikken Chemicals Co., Ltd., priority 1997, dated 2001).

Structures are written as SMILES.

The subject of one assay is Type IV PDE. The assay is described as follows: PDE IV inhibitory activity (isozyme partially purified from rat neutrophils, 3H-cAMP substrate). In kind it is biochemical. Conditions: rat neutrophil PDE IV, 30° C., 30 minutes, read-out: PDE IV inhibiting action IC50. The method, then:
Type I, III, IV, and V PDE isozymes were prepared to study the PDE inhibitory activities of and selectivities with the compound of the invention [Trends Pharmacol Sci., 12, 19-27 (1991)]. Type I PDE was purchased from Sigma Corp. Type III, IV, and V PDE isozymes were partially purified from platelets (Type III and V) or neutrophils (Type IV) collected from rats. Each enzyme source was homogenized in a buffer (pH 6.5) containing 20 mM bisTris, 2 mM EDTA (i.e., ethlenediamine tetraacetate), 2-mercaptoethanol, 0.001 mM pepstatin and 0.01 mM leupeptin and was centrifuged at 30000×G for 30 minutes to obtain a supernatant, which was applied to an ion exchange column (Q-sepharose first flow, Pharmacia Corp.) and was eluted with 0 to 1M sodium acetate. Partially purified isozymes were identified by observing the inhibitory effects of conventional inhibitors.
Each PDE isozyme and the test compound dissolved in DMSO (i.e., dimethylsulfoxide) were added to 50 mM Tris--HCI buffer containing 5 mM magnesium chloride. ^3 H-cAMP (for type III and IV PDE) or ^3 H-cGMP (for type I and V PDE) were added as substrates and were reacted at 30° C. for 30 minutes. The reaction was terminated by placing the test tube in boiling water of 100° C. for 5 minutes. The nucleotides formed by PDE were broken down to ^3 H-adenosine or ^3 H-guanosine by 5'-nucleotidase. The substrate and reaction product were separated through an ion-exchange column (i.e., QAE sephadex, Pharmacia Corp.)
The eluted ^3 -H-nucleoside was measured for its radioactivity by a liquid scintillation counter. The inhibitory activities of the compound of the present invention are shown by the IC50 value (M). Further, the inhibitory activities of the test samples against type I, III, and V PDE are 1/10 or less than that against Type IV PDE.

Assay [1] relates to antigen-induced bronchoconstriction in guinea-pig. The assay is described as follows: Inhibitory effect on antigen-induced bronchospasm (anti-asthmatic action). Particulars: Cavia porcellus; intravenous, 10 minutes before 0.2 mg/kg OA challenge; read-out: Action suppressing antigen induced bronchoconstriction ED50. In kind it is in vivo, guinea-pig (Hartley male). The method, then: Hartley male guinea-pig was sensitized by intramuscular administration of 35 mg Ovalbumin (OA) at first day and fourth day. After 25 to 29 days of first sensitization, trachial canula was introduced in the guinea pig anesthetized with pentobarbital and artificial ventilation was performed. The overflow of the ventilation was measured by the Konzett Roessler method while 0.2 mg/kg OA were administered intravenously. The test compound was dissolved in polyethylene glycol 400 and intravenously administered 10 minutes before OA challenge.

Assay [2] deals with TPA induced ear edema in mouse. As to the kind of experiment: TPA induced mouse ear edema assay. In kind it is in vivo, mouse (male ICR). Conditions: 0.1 mg applied to right ear immediately after TPA; 6 hour. The method, then:
Male ICR mice, 5 week old, were divided into groups of seven to eight. 2 μg of TPA (phorbor 12-ministate; Sigma Co.) in 20 μl acetone was applied to the inner and outer surface of right ear of each mouse to cause a reaction. 0.1 mg of compound was dissolved in 20 μl of a tetrahydrofuran-methanol mixture (mixture ratio 1:1) and the solution (20 μl) applied to the right ear immediately after TPA treatment. After 6 hour, the animals were sacrificed and right ear was punched out (.phi. […]) and weighed. The effect of comppund.was calculated as % inhibition as follows: [formula]

The IC50 is the concentration that inhibits the measured activity by half. In general, ED50 refers to the midpoint of the dose-response relation. `COc1ccc(NC2=C(C)C(=O)CC2)cc1OC1Cc2ccccc2C1` [Compound No. 10, 3-[3-(2-indanyloxy)-4-methoxyanilino]-2-methyl-2-cyclopenten-1-one]: the half-maximal inhibitory concentration (IC50) with Type IV PDE is 140 nM. The 50% effective dose (ED50) in assay [1] worked out at 0.86 mg/kg.

In the case of `CCC1=C(Nc2ccc(OC)c(OC3Cc4ccccc4C3)c2)CCC1=O` [Compound No. 32, 2-ethyl-3-[3-(2-indanyloxy)-4-methoxyanilino]-2-cyclopenten-1-one], in the assay with Type IV PDE, the IC50 stood at 50 nM. In assay [2], the “% Inhibition of ear edema” value is recorded as 75.5%. The ED50 in assay [1] came out at 7.34 mg/kg.

As to `COc1ccc(NC2=C(C)C(=O)CCC2)cc1OCCC1Cc2ccccc2C1` [Compound No. 53, 3-[3-[2-(2-indanyl)ethoxy]-4-methoxyanilino]-2-methyl-2-cyclohexen-1-one], in the assay with Type IV PDE, the IC50 stood at 220 nM. Further, the “% Inhibition of ear edema” value in assay [2] is 55.9%.

In the case of `COc1ccc(NC2=C(C)C(=O)CCC2)cc1OC1CCCCC1` [Compound No. 55, 3-(3-cyclohexyloxy-4-methoxyanilino)-2-methyl-2-cyclohexen-1-one], the IC50 with Type IV PDE was 2000 nM. Also, in assay [2], the “% Inhibition of ear edema” value was 70.8%.

Consider `COc1ccc(N(Cc2ccccc2)C2=CC(=O)CC2)cc1OC1CCCCC1` [Compound No. 56, 3-(N-benzyl-3-cyclohexyloxy-4-methoxyanilino)-2-cyclopenten-1-one], for which, in the assay with Type IV PDE, the IC50 was found to be 5500 nM. The “% Inhibition of ear edema” value in assay [2] stood at 86.1%.

On to `COc1ccc(N(Cc2ccc3ccccc3c2)C2=CC(=O)CC2)cc1OC1CCCCC1` [Compound No. 57, 3-[3-cyclohexyloxy-4-methoxy-N-(2-naphthylmethyl)anilino]-2-cyclopenten-1-one], for which, in the assay with Type IV PDE, the IC50 is 1900 nM. Moreover, the “% Inhibition of ear edema” value in assay [2] is on record as 89.7%.

`COc1ccc(N(Cc2ccc3ccccc3n2)C2=CC(=O)CC2)cc1OC1CCCC1` [Compound No. 58, 3-[3-cyclopentyloxy-4-methoxy-N-(2-quinolylemethyl)anilino]-2-cyclopenten-1-one]: the IC50 in the assay with Type IV PDE came out at 530 nM. In addition, the “% Inhibition of ear edema” value in assay [2] worked out at 58.7%.

With `CCCN(C1=CC(=O)CC1)c1ccc(OC)c(OC2CCCC2)c1` [Compound No. 59, 3-(3-cyclopentyloxy-4-methoxy-N-propylanilino)-2-cyclopenten-1-one], the 50% inhibitory concentration (IC50) in the assay on Type IV PDE was 7400 nM. In addition, the “% Inhibition of ear edema” value in assay [2] amounted to 60.1%.

`COc1ccc(N(C2=CC(=O)CC2)C2CCCC2)cc1OC1CCCC1` [Compound No. 60, 3-(N-cyclopentyl-3-cyclopentyloxy-4-methoxyanilino)-2-cyclopenten-1-one]: the IC50 in the assay on Type IV PDE worked out at 44000 nM. In addition, in assay [2], the “% Inhibition of ear edema” value came to 78.5%.

For `COc1ccc(N(Cc2ccccn2)C2=CC(=O)CC2)cc1OC1CCCC1` [Compound No. 61, 3-[3-cyclopentyloxy-4-methoxy-N-(2-pyridylmethyl)anilino]-2-cyclopenten-1-one], the IC50 in the assay with Type IV PDE amounted to 3200 nM. Also, the “% Inhibition of ear edema” value in assay [2] came to 66.2%.

For the compound `COc1ccc(N(Cc2ccc3ccccc3c2)C2=CC(=O)CC2)cc1OC1CCCC1` [Compound No. 62, 3-[3-cyclopentyloxy-4-methoxy-N-(2-naphthylmethyl)anilino]-2-cyclopenten-1-one], the IC50 in the assay on Type IV PDE stood at 1200 nM. Besides, the “% Inhibition of ear edema” value in assay [2] is 78.8%.

As for `COc1ccc(N(Cc2cccnc2)C2=CC(=O)CC2)cc1OC1CCCC1` [Compound No. 63, 3-[3-cyclopentyloxy-4-methoxy-N-(3-pyridylmethyl)anilino]2-cyclopenten-1-one], in the assay with Type IV PDE, the IC50 came out at 5300 nM. Besides, the “% Inhibition of ear edema” value in assay [2] was determined as 75.4%.

Regarding `CCCCCN(C1=CC(=O)CC1)c1ccc(OC)c(OC2CCCC2)c1` [Compound No. 64, 3-(3-cyclopentyloxy-4-methoxy-N-pentylanilino)-2-cyclopenten-1-one], the IC50 in the assay on Type IV PDE was 4400 nM. Also, in assay [2], the “% Inhibition of ear edema” value was 52.0%.

As for `COc1ccc(N(C)C2=CC(=O)CCC2)cc1OC1Cc2ccccc2C1` [Compound No. 65, 3-[3-(2-indanyloxy)-4-methoxy-N-methylanilino]-2-cyclohexen-1-one], the IC50 in the assay with Type IV PDE was 290 nM. For the same compound, in assay [2], the “% Inhibition of ear edema” value is recorded as 52.5%.

Take `COc1ccc(N(Cc2ccccc2)C2=CC(=O)CCC2)cc1OC1Cc2ccccc2C1` [Compound No. 66, 3-[N-benzyl-3-(2-indanyloxy)-4-methoxyanilino]-2-cyclohexen-1-one]: in the assay on Type IV PDE, the half-inhibitory concentration (IC50) is 570 nM. Also, the “% Inhibition of ear edema” value in assay [2] was determined as 72.8%.

As for `COc1ccc(N(Cc2ccc3ccccc3c2)C2=CC(=O)CCC2)cc1OC1Cc2ccccc2C1` [Compound No. 67, 3-[3-(2-indanyloxy)-4-methoxy-N-(2-naphthylmethyl)anilino]-2-cyclohexen-1-one], the IC50 in the assay on Type IV PDE came to 3800 nM. In addition, the “% Inhibition of ear edema” value in assay [2] is 60.8%.

As for `COc1ccc(N(Cc2ccccn2)C2=CC(=O)CCC2)cc1OC1Cc2ccccc2C1` [Compound No. 68, 3-[3-(2-indanyloxy)-4-methoxy-N-(2-pyridylmethyl)anilino]-2-cyclohexen-1-one], the half-inhibitory concentration (IC50) in the assay with Type IV PDE was 490 nM. For the same compound, the “% Inhibition of ear edema” value in assay [2] was 52.0%.

On to `COc1ccc(N(Cc2ccncc2)C2=C(C)C(=O)CC2)cc1OC1Cc2ccccc2C1` [Compound No. 73, 3-[3-(2-indanyloxy)-4-methoxy-N-(4-pyridylmethyl)anilino]-2-methyl-2-cyclopenten-1-one], for which the IC50 in the assay with Type IV PDE came to 3200 nM. Moreover, the “% Inhibition of ear edema” value in assay [2] is 54.3%.

On to `COc1ccc(NC2=C(C)C(=O)CCC2)cc1OC1CCCC1` [Compound No. 75, 3-(3-cyclopentyloxy-4-methoxyanilino)-2-methyl-2-cyclohexen-1-one], for which, in the assay on Type IV PDE, the IC50 was 470 nM. Besides, the “% Inhibition of ear edema” value in assay [2] was found to be 64.8%.

For `COc1ccc(N(C)C2=CC(=O)CC2)cc1OC1Cc2ccccc2C1` [Compound No. 76], the IC50 with Type IV PDE was found to be 130 nM. In addition, in assay [2], the “% Inhibition of ear edema” value amounted to 52.7%.

With `COc1ccc(N(Cc2ccccc2)C2=CC(=O)CC2)cc1OC1Cc2ccccc2C1` [Compound No. 77, 3-[N-benzyl-3-(2-indanyloxy)-4-methoxyanilino]-2-cyclopenten-1-one], the IC50 with Type IV PDE stood at 910 nM. The “% Inhibition of ear edema” value in assay [2] is on record as 50.9%.

As for `COc1ccc(N(Cc2ccncc2)C2=CC(=O)CC2)cc1OC1Cc2ccccc2C1` [Compound No. 78, 3-[3-(2-indanyloxy)-4-methoxy-N-(4-pyridylmethyl)anilino]-2-cyclopenten-1-one], in the assay on Type IV PDE, the IC50 amounted to 1300 nM. Besides, the “% Inhibition of ear edema” value in assay [2] is given as 82.2%.

As for `COc1ccc(N(Cc2ccc3ccccc3c2)C2=CC(=O)CC2)cc1OC1Cc2ccccc2C1` [Compound No. 79, 3-[3-(2-indanyloxy)-4-methoxy-N-(2-naphthylmethyl)anilino]-2-cyclopenten-1-one], the IC50 in the assay with Type IV PDE stood at 730 nM. In assay [2], the “% Inhibition of ear edema” value was determined as 89.0%.

As for `COc1ccc(N(Cc2ccc3ccccc3n2)C2=CC(=O)CC2)cc1OC1Cc2ccccc2C1` [Compound No. 80, 3-[3-(2-indanyloxy)-4-methoxy-N-(2-quinolylmethyl)anilino]-2-cyclopenten-1-one], the IC50 with Type IV PDE is 120 nM. For the same compound, in assay [2], the “% Inhibition of ear edema” value turned out to be 64.4%.
